Results on eight molecules are retold here after PMC7762174 (Viruses, 2020).

Data set [1] is described as follows: in vitro. To be noted: African green monkey.
Data set [2] has as its system SARS-CoV-2. In words: microbe, parasite or virus in culture. The format is cell-based.
Data set [3] deals with human PBMCs. In words: Cytotoxicity in PBMC (MTS).
The subject of data set [4] is HIV-1_91US005. To be noted: HIV-1, human PBMC, p24 ELISA; 95% CI in brackets. For orientation: An ELISA detects its analyte on a solid surface through an enzyme-linked reagent.
Data set [5] deals with HIV-1_91US005. To be noted: HIV-1, human PBMC, RT assay, 7 days; 95% CI in brackets.
The test system of data set [6] is SARS-CoV-2. Briefly: microbe, parasite or virus in culture. To be noted: for reduction in viral yield: Vero 76, 3 days. In kind it is cell-based.
The next data set deals with Vero cells. To be noted: African green monkey.
Data set [7] can be described thus: in vitro. The format is cell-based. Conditions: human.
Data set [8] in a line: in vitro. In kind it is cell-based. To be noted: African green monkey.
Data set [9] concerns SARS-CoV-2. Briefly: microbe, parasite or virus in culture. The format is cell-based. This is another data set of the same source.
Data set [10] is described as follows: in vitro. Conditions: African green monkey. The source holds these as a separate data set.
Data set [11] has as its system SARS-CoV-2. The format is cell-based.
Data set [12] is described as follows: Neutral Red assay (NRA) cytotoxicity. Conditions: African green monkey.
Data set [13] concerns HIV-1_91US005. In words: microbe, parasite or virus in culture. Conditions: Human immunodeficiency virus 1, PBMC, 168 h.
A further data set has as its system HCMV AD169-GFP. In words: microbe, parasite or virus in culture. In kind it is cell-based, human cytomegalovirus. To be noted: Human betaherpesvirus 5, AD169, 168 h.
In data set [14] the test system is Huh7 human hepatoma cell line. In words: Cytotoxicity in Huh7 replicon cells (CytoTox-1 cell proliferation assay). Conditions: highest concentration (30 µM), Huh7. A general note: A replicon is a self-replicating genome or part of one, used to study replication in cells.
Assay in data set [15]: as above
Conditions: human.

Data set [16] can be described thus: in vitro. To be noted: human.
The subject of data set [17] is HIV-1_91US005. In words: microbe, parasite or virus in culture. Conditions: Human immunodeficiency virus 1, PBMC.
For data set [18], the system named is human PBMCs. To be noted: 7 days, 100 µM.
The nature of data set [19]: in vitro. To be noted: human. The source holds these as a separate data set.
Data set [20] has as its system primary human foreskin fibroblasts (HFFs).
The test system of data set [21] is HCV subgenomic replicon of genotype 1b. In words: HCV subgenomic replicon Luc reporter assay in Huh7. In kind it is cell-based. Conditions: Hepatitis C virus, Huh-7, 24 h.
The next data set has as its system inflammation in the lung. Set-up: method as in ref 57 = [57]. To be noted: mouse model of systemic lupus erythematosus; cited from earlier work.
A further data set relates to MPO in colonic tissue. Set-up: method as in ref 57 = [57]. Conditions: murine TNBS-induced colitis model; cited from earlier work.
The target of data set [22] is T1, N-terminally truncated recombinant hDHODH enzyme (Homo sapiens, UniProt Q02127).
T1 construct: using an N-terminally truncated recombinant hDHODH enzyme as described
Briefly: In vitro inhibition of human DHODH. In kind it is biochemical.

The subject of data set [23] is primary human foreskin fibroblasts (HFFs). More on the design: method as in ref 28 = [28]. Conditions: HFF; reported previously; cited from earlier work.
[24] abbreviates: Severe acute respiratory syndrome coronavirus 2, RT-qPCR, Vero cells, read-out: Anti-SARS-CoV-2 drug efficacy on Vero cells: EC50.
Setting [25] is: Severe acute respiratory syndrome coronavirus 2, Caco-2.

Where a name gives a salt, the structure may show the parent alone. Read-outs that look alike come from different tables or passages of the source.

T1 sequence (Q02127 29-395 limits assumed): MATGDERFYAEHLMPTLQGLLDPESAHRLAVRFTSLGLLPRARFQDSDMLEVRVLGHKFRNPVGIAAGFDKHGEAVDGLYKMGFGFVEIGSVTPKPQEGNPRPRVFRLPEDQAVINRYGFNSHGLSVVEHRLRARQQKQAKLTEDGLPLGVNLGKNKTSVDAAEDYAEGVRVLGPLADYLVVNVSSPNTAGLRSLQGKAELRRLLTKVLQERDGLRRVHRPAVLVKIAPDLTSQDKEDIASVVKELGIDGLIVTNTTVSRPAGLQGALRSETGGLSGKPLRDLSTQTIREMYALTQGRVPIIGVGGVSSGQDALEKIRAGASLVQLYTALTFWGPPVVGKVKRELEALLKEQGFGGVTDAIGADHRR

By EC50 is commonly meant the concentration at which the effect is half-maximal. `CCN(CC)CCCC(C)Nc1ccnc2cc(Cl)ccc12` (stereo not drawn) [CQ, chloroquine, reference compound] gave a CC50 in the data set “in vitro [1]” above 20 µM. Also, the EC50 with SARS-CoV-2 [2] (setting [24]) worked out at 2.7 ± 0.9 µM.
With `Cc1cn([C@H]2C[C@H](N=[N+]=[N-])[C@@H](CO)O2)c(=O)[nH]c1=O` [AZT, azidothymidine/zidovudine], the CC50 in the data set with human PBMCs [3] was above 1 µM. For the same molecule, the values for the EC50 in the data set with HIV-1_91US005 [4] and in the data set with HIV-1_91US005 [5] were 0.00027 µM and 0.00038 µM, respectively.
What is called EC90 is the point of the concentration-response curve where the effect stands at 90%. Turning to `C/C(O)=C(\C#N)C(=O)Nc1ccc(C(F)(F)F)cc1` [TFNM, teriflunomide], in the data set with SARS-CoV-2 [6] (Severe acute respiratory syndrome coronavirus 2, 72 h, Vero 76, USA_WA1/2020, MOI 0.002, VYR, 3 days p.i., read-out: EC90), the EC90 is 14 µM.
A word on the viability: it is a per cent measure of how many cells are alive, often set against a control. As to `COc1cccc(-c2ccc(NC(=O)C3=C(C(=O)O)CCC3)c(F)c2)c1` [IMU-838, calcium salt of vidofludimus], the CC50 in the data set with Vero cells was above 100 µM; in the data set “in vitro [7]” it was above 60 µM; in “in vitro [10]” (CC50), 88.1 ± 3.7 µM. Moreover, the CC90 in “in vitro [7]” is above 60 µM; in “in vitro [8]”, above 100 µM. Besides, the EC90 is 6.2 ± 1.9 µM in the data set on SARS-CoV-2 [6] (Severe acute respiratory syndrome coronavirus 2, Vero 76, 72 h) and 15 to 30 µM with SARS-CoV-2 [9] (setting [25]). For the same molecule, the “reduction in viral yield” value in the data set with SARS-CoV-2 [6] (drug alone at 10 µM) is on record as ~ 1.7 fold log unit. In the data set on SARS-CoV-2 [9] (30 µM, CaCo-2, 72 h p.i.), the “reduction of viral plaques” value is recorded as ~ 1.8 log unit. Further, the EC50 with SARS-CoV-2 [9] (setting [25]) was 7.5 to 15 µM; in the data set on SARS-CoV-2 [2] (Severe acute respiratory syndrome coronavirus 2, Vero 76, 72 h, read-out: EC50, replicate 3 RT-qPCR) it was 10 ± 9 µM; in the data set with SARS-CoV-2 [2] (Severe acute respiratory syndrome coronavirus 2, Vero, 48 h, read-out: EC50, replicate 1 RT-qPCR), 6.8 µM; in the data set on SARS-CoV-2 [2] (Severe acute respiratory syndrome coronavirus 2, Vero, 72 h, read-out: EC50, replicate 2 RT-qPCR), 6 µM; in the data set with SARS-CoV-2 [2] (Severe acute respiratory syndrome coronavirus 2, Vero, read-out: Mean EC50 of replicates 1-3), 7.6 ± 5.8 µM. In the data set “in vitro [10]”, this molecule had a viability at 3 days, 100 µM of 95%. In the data set on SARS-CoV-2 [11], the “inhibition of viral RNA production (mAb-dsRNA)” value is “concentration-dependent IMU-838-mediated inhibition”. For the same molecule, the “inhibition of viral spike protein production (mAb-S)” value with SARS-CoV-2 [11] is given as “concentration-dependent IMU-838-mediated inhibition”.
Turning to `CCC(CC)COC(=O)[C@H](C)N[P@](=O)(OC[C@H]1O[C@@](C#N)(c2ccc3c(N)ncnn23)[C@H](O)[C@@H]1O)Oc1ccccc1` [RDV, remdesivir], the CC50 in “in vitro [1]” is above 20 µM; in [12], above 100 µM. Besides, the “reduction in viral yield” value was ~ 3.8 fold log unit in the data set on SARS-CoV-2 [6] (drug alone at 5 µM) and above 4.0 fold log unit in the data set with SARS-CoV-2 [6] (drug alone at 10 µM). In addition, in the data set with SARS-CoV-2 [2] (setting [24]), the EC50 was found to be 1.7 ± 1 µM.
For `COc1cccc(-c2ccc(NC(=O)C3=C(C(=O)O)CCC3)c(F)c2)c1` [Vido, vidofludimus], the EC50 with HIV-1_91US005 [13] is 2.1 µM; in the data set with HCMV AD169-GFP, 7.4 ± 0.1 µM; with HIV-1_91US005 [17], 1.3 µM; in data set [21], 5.9 µM. Besides, the “reduction in cell viability” value is 34% in data set [14] and 46.8% in the data set with human PBMCs [18]. In [15], the CC50 at 24 h was above 30 µM. The CC50 at 7 days in “in vitro [16]” is above 100 µM. The CC50 in “in vitro [19]” is above 100 µM. Also, the cytotoxicity entry in data set [20] was “absence of detectable cytotoxicity”. Besides, in the data set on inflammation in the lung, the “inflammation in the lung” value is listed as “decreased inflammation in the lung”. Further, the “levels of MPO in colonic tissue” value in the data set on MPO in colonic tissue is reported as “reduced the levels of MPO in colonic tissue”.
As usually defined, the IC50 is the concentration that gives 50% inhibition. With `COC(=O)c1c(-c2c(F)cccc2Cl)noc1-c1cnn(-c2cccc(Cl)c2)c1C(F)(F)F` [IMU-CO3], the concentration for half-maximal inhibition (IC50) in data set [22] amounted to 0.041 µM. This molecule registered a CC50 at 3 days in the data set “in vitro [10]” (CC50 values on Vero cells) above 100 µM. In addition, the EC50 in the data set on SARS-CoV-2 [2] (setting [24]) worked out at 15.5 ± 4.6 µM.
For `Nc1nc(O)c2ncn(COC(CO)CO)c2n1` [GCV, ganciclovir, reference compound], in the data set on HCMV AD169-GFP, a half-maximal response (EC50) required 1.69 ± 0.8 µM. Besides, in data set [23], the CC50 was above 15 µM.
